Source: patent publication US20050026896A1, “Platinum(II) and platinum(IV) complexes and their use” (Faustus Forschungs Cie. Translational Cancer Research GmbH, priority 2001, published 2005)

Test system: GMP as DNA constituent
Test: Reactivity with GMP: adduct formation under physiological and patho-physiological conditions
Assay type: biochemical
Excerpt: The reactivity of the compound cis-dichloro-bis(2-ethanolamine)platinum(II) was examined under physiological and patho-physiological conditions (FIG. 2). […] Chem. 39(4): 836-842 (2000); Choi, Sunhee; Mahalingaiah, Shruthi; Delaney, Sarah; Neale, Nathan R.; Masood, Syed “Substitution and Reduction of Platinum(IV) Complexes by a Nucleotide, Guanosine 5′-Monophosphate” Inorg. Chem. 38(8): 1800-1805 (1999); Chen, Yu; Guo, Zijian; Parkinson, John A.; Sadler, Peter J. “Kinetic control of reactions of a sterically hindered platinum picoline anticancer complex with guanosine 5′-monophosphate and glutathione” J. Chem. Soc., Dalton Trans.), 21: 3577-3586 (1998); Bloemink, Marieke J.; Perez, Janice M. J.; Heetebrij, Robert J.; Reedijk, Jan “The new anticancer drug [(2R)-aminomethylpyrrolidine](1,1-cyclobutanedicarboxylato)platinum(II) and its toxic S enantiomer do interact differently with nucleic acids” J. Biol. Inorg. Chem. 4(5): 554-567 (1999).
Similar to Example 8, the reactivity of the compound bis(2-ethanolatoamine-κ^2N,O)platinum(II) (see Example 8 for the synthesis) was examined. In this respect, the proportion of the nucleotide not modified by the active substance was measured.

Structure (SMILES)	speed of reaction with the nucleotide (proportion of the nucleotide not modified by the active substance) (patho-physiological conditions (pH 6) compared to tissue free of disease (pH 7.4), FIG. 3)	selectivity of reaction, patho-physiological versus physiological conditions (FIG. 2, comparison of left and right diagram)	reactivity: reaction with the biological target (formation of adducts with GMP) (patho-physiological conditions (FIG. 2, left diagram))	reactivity: reaction with the biological target (formation of adducts with GMP) (physiological conditions (FIG. 2, right diagram))
C1C[O][Pt]2([NH]1)[NH]CC[O]2 [(SP-4-2)-[bis(2-aminoethanolato)-κ^2N,O]platinum(II)]	significantly increased speed			
OCC[NH][Pt]([Cl])([Cl])[NH]CCO [(SP-4-2)-dichloro[bis(2-hydroxyethylamine)]platinum(II)]		Selectivity is therefore present	rapid reaction	clearly runs slower
